Test results: publication PMC10778198, “First-in-Human Dose-Escalation Study of the Novel Oral Depsipeptide Class I-Targeting HDAC Inhibitor Bocodepsin (OKI-179) in Patients with Advanced Solid Tumors” (Cancers, 2023)

Test system: patients with advanced solid tumors
Assay: phase I dose escalation: safety, DLT, MTD, RP2D (CTCAE v. 5)
Type: in vivo
Conditions: 5:2, 300 mg (N=6)
Excerpt: Subsequent dosing cohorts were enrolled using a standard 3 + 3 design.
If any patient in any cohort of three patients developed a DLT during cycle 1, an additional three patients were recruited to expand the cohort to up to six evaluable patients. If two or more patients in any expanded cohort developed a DLT, this dose was considered non-tolerated, and dose escalation was discontinued. The MTD was defined as the highest dose level for which no more than one of six patients experienced a DLT.
Patients were continuously evaluated for adverse events throughout the study using the Common Terminology Criteria of Adverse Events (CTCAE v. 5). The patients underwent a clinical history and physical examination, an ECOG PS, a complete blood count (CBCs), chemistry, coagulation studies, urinalysis, a serum pregnancy test (as applicable), a triplicate ECG, an ophthalmology examination, and baseline tumor assessment at screening. During cycle 1, weekly history and physical examination, CBC, chemistry, coagulation parameters, urinalysis, and triplicate ECGs were performed; in subsequent cycles, weekly labs were limited to a CBC. Repeat ophthalmology examinations were performed at cycle 3, day 1, and at the end of treatment. Repeat tumor assessment was performed every 2 cycles (6 weeks) in accordance with RECIST 1.1.

CC(C)[C@H](N)C(=O)SCC/C=C/[C@@H]1CC(=O)NCc2nc(cs2)C(=O)NC(C)(C)C(=O)N[C@@H](C(C)C)C(=O)O1 [OKI-179, Bocodepsin]
2 (33) N (%): TEAE: Back pain (All grades) | TEAE: Decreased appetite (All grades) | TEAE: ECG QT prolonged (All grades) | TEAE: ECG QT prolonged (G1) | TEAE: Vomiting (G1)
4 (67) N (%): TEAE: Fatigue (All grades) | TEAE: Platelet count decreased (All grades) | TEAE: Nausea (G1) | TEAE: Platelet count decreased (G1)
1 (17) N (%): TEAE: Aspartate aminotransferase increased (All grades) | TEAE: Bile duct stenosis (All grades) | TEAE: Blood alkaline phosphatase increased (All grades) | TEAE: Dehydration (All grades) | TEAE: Dysphagia (All grades) | TEAE: Enterococcal bacteremia (All grades) | TEAE: Esophagitis (All grades) | TEAE: Esophagoscopy (All grades) | TEAE: Eye pain (All grades) | TEAE: Gastritis (All grades) | TEAE: Hypomagnesaemia (All grades) | TEAE: Myalgia (All grades) | TEAE: Neutrophil count decreased (All grades) | TEAE: Oropharyngeal pain (All grades) | TEAE: Pain in extremity (All grades) | TEAE: Paresthesia (All grades) | TEAE: Pneumonitis (All grades) | TEAE: Pneumothorax (All grades) | TEAE: Anemia (G1) | TEAE: Aspartate aminotransferase increased (G1) | TEAE: Back pain (G1) | TEAE: Blood alkaline phosphatase increased (G1) | TEAE: Dehydration (G1) | TEAE: Esophagitis (G1) | TEAE: Eye pain (G1) | TEAE: Fatigue (G1) | TEAE: Gastritis (G1) | TEAE: Hypomagnesaemia (G1) | TEAE: Myalgia (G1) | TEAE: Neutrophil count decreased (G1) | TEAE: Paresthesia (G1) | TEAE: Abdominal pain (G2) | TEAE: Decreased appetite (G2) | TEAE: Dysphagia (G2) | TEAE: Esophagoscopy (G2) | TEAE: Oropharyngeal pain (G2) | TEAE: Pain in extremity (G2)
0 N (%): TEAE: Abdominal pain (G1) | TEAE: Bile duct stenosis (G1) | TEAE: Decreased appetite (G1) | TEAE: Dysphagia (G1) | TEAE: Enterococcal bacteremia (G1) | TEAE: Esophagoscopy (G1) | TEAE: Oropharyngeal pain (G1) | TEAE: Pain in extremity (G1) | TEAE: Pneumonitis (G1) | TEAE: Pneumothorax (G1) | TEAE: Anemia (G2) | TEAE: Aspartate aminotransferase increased (G2) | TEAE: Back pain (G2) | TEAE: Bile duct stenosis (G2) | TEAE: Blood alkaline phosphatase increased (G2) | TEAE: Dehydration (G2) | TEAE: ECG QT prolonged (G2) | TEAE: Enterococcal bacteremia (G2) | TEAE: Esophagitis (G2) | TEAE: Eye pain (G2) | TEAE: Gastritis (G2) | TEAE: Hypomagnesaemia (G2) | TEAE: Myalgia (G2) | TEAE: Nausea (G2) | TEAE: Neutrophil count decreased (G2) | TEAE: Paresthesia (G2)
5 (83) N (%): TEAE: Nausea (All grades)
3 (50) N (%): TEAE: Vomiting (All grades) | TEAE: Fatigue (G2)
